Among the data in PMC10825075, “Proteomic analysis of horse hair extracts provides no evidence for the existence of a hypoallergenic Curly Horse breed” (Clinical and Translational Allergy, 2024) are Ki, Kd and EC50 values, retold here.

The target of assay [1] is T1, Equ c 1.0102 (Equus caballus, UniProt A0A3Q2HX90).
T1 construct: mature protein, residues 16-187 (signal peptide removed), C-terminal His6 tag, codon-optimized synthetic cDNA in pET-21d(+), E. coli Rosetta-gami 2(DE3), purified by HisTrap
T1 sequence (A0A3Q2HX90 16-187): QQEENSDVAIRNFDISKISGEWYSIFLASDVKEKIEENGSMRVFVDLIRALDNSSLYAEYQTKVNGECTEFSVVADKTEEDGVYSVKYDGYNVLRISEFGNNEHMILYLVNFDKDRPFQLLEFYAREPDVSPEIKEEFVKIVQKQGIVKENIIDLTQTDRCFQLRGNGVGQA
The assay can be described thus: competitive displacement of fluorescent probe 1-NPN, 12-point titration, one-site fit. The assay is classed as binding.

Assay [2] has as its target T1, Equ c 1.0102. In words: fluorescent probe binding (excitation […] nm, emission […] nm). The settings on record: read-out: dissociation constant.
The target in assay [3] is T1, Equ c 1.0102. The assay is described as above.

Broadly, the Ki is a dissociation constant, usually derived from enzyme kinetics or from competition with a known ligand. Low values mean higher affinity, high ones lower affinity. On to `CC(C)CCCC(C)CCO` (stereo not shown) [3,7-dimethyl-1-octanol], for which the Ki at Equ c 1.0102 [1] is 0.6 µM.
What is called EC50 is the concentration that produces a half-maximal response. A lower EC50 goes with a more potent agent. As for `c1ccc(Nc2cccc3ccccc23)cc1` [1-NPN], the Kd at Equ c 1.0102 [2] came to 6.4 µM. In addition, on Equ c 1.0102 [3], the EC50 was 5 µM.
Consider `CCCCCCCCCCO` [1-decanol], for which the Ki on Equ c 1.0102 [1] came to 1.1 µM.
